Each block holds one molecule with its values, some of them ahead of it.
Assays:
[1] = method code SF-GLC, from DOI: 10.1016/j.chemosphere.2005.05.003, PMID: 15967478
[2] = not given; remark: listed apart in the source
[3] = method code SF-AS, from DOI: 10.1039/ft9959100995
[4] = method code SF-GLC, from DOI: 10.1021/jm00366a019, PMID: 6644745; settings: pH 12.0
[5] = method code SF-HPLC, from DOI: 10.1021/jm9509197, PMID: 8648601; settings: pH 7.4
[6] = method code SF-AS, from DOI: 10.1021/bi00405a042
[7] = not given; remark: listed apart in the source
[8] = method code SF-AS, from Lippold, B.; Lichey, J. (1984). Transport of drugs through lipophilic polymer membranes. II. Influence of the partition and diffusion coefficients. Acta pharmaceutica technologica, 30(2)140-154.
[9] = method code SF, from DOI: 10.1016/s0378-5173(98)00231-2
[10] = not given; remark: listed apart in the source
[11] = method code SF-HPLC, from DOI: 10.1016/0168-3659(92)90067-2
[12] = method code SF, from DOI: 10.1016/0378-5173(86)90155-9; settings: pH 7.0
[13] = method code SF, from DOI: 10.1021/js9700917, PMID: 9452977; settings: pH 5.5
[14] = method code SF-NMR, from DOI: 10.1016/j.jpba.2012.12.010, PMID: 23298914; settings: pH 7.7
[15] = method code SF-HPLC, from DOI: 10.1161/01.res.55.4.513, PMID: 6478555
[16] = method code SF-GLC, from DOI: 10.1021/es60128a001
[17] = method code SF-HPLC, from DOI: 10.1016/j.ejps.2015.05.008, PMID: 25968358; settings: pH 7.4
[18] = not given; remark: listed apart in the source
[19] = method code SF-HPLC, from DOI: 10.1177/074823378700300403, PMID: 3433285
[20] = method code SF-AS, from DOI: 10.1016/0006-2952(81)90362-2, PMID: 7271838; settings: pH 7.5
[21] = method code SF-AS/HPLC, from Ellington, J. J. (1988). Octanol/water partition coefficients for evaluation of hazardous waste land disposal: Selected chemicals. US Environmental Protection Agency, Environmental Research …
[22] = not given; remark: listed apart in the source
[23] = method code SF-HPLC, from DOI: 10.1016/0378-5173(90)90184-6; settings: pH 4.0
[24] = method code SF, from DOI: 10.1248/yakushi1947.93.11_1452, PMID: 4273378
[25] = method code SF-AS, from DOI: 10.1016/s0003-2670(01)80868-0
[26] = not given; remark: listed apart in the source
[27] = method code SF-RC, from DOI: 10.1002/jlcr.2580210110; settings: pH 7.4
[28] = method code SF-AS, from DOI: 10.1007/bf02273190
[29] = method code SF, from DOI: 10.1038/bjc.1982.190, PMID: 7150475

logP [1]: 4.59
SMILES: C=C1C=CC(C(C)C)CC1 (configuration not stated)

logP: 3.81
SMILES: CCSc1nc(NC(C)C)nc(NC(C)C)n1

logP [2]: 1.81
SMILES: CN(C)CCSCc1ccccc1

logP [3]: -1.33
SMILES: CC(=O)Nc1ncc2ncn(COCCO)c2n1

logD [5]: -0.4
SMILES: O=[N+]([O-])c1ncnc2c1ncn2C1OC(CO)CC1F (configuration not stated)

logP [6]: 1.19
SMILES: CC(=O)NCCc1ccccc1

logP [8]: 1.18
SMILES: CCCCNC(=O)NS(=O)(=O)c1ccc(N)cc1

logP [11]: 1.19
SMILES: COc1ccc(C[C@H](NC(C)=O)C(=O)N[C@H](Cc2ccc(OC)cc2)C(N)=O)cc1

logD [14]: 0.26
SMILES: COC(=O)[C@@H](N)Cc1ccc(O)c(I)c1

logP [15]: 0.41
SMILES: Cc1cccc(C)c1NC(=O)CN

logP [19]: 2.02
SMILES: CCN(CC)C(=O)c1ccccc1C

logD [20]: 3.05
SMILES: CCCCOC(=O)c1ccc(N)cc1

logP [22]: 3.18
SMILES: COC(C)(C(=O)O)c1ccc2ccccc2c1 (configuration not stated)

logP [24]: 0.86
SMILES: CCN(CC)C(=O)c1cccnc1

logD [12]: 0.93
SMILES: CS(=O)CCCOc1ccc([N+](=O)[O-])cc1 (configuration not stated)

logP [15]: 1.32
SMILES: CCNCC(=O)Nc1c(C)cccc1C

logP [26]: -0.25
SMILES: CC(=O)OC[C@H]1O[C@@H](n2cc(C)c(=O)[nH]c2=O)C[C@@H]1O

logD [27]: 5.7
SMILES: FC12CC3CC(CC(C3)C1)C2

logP [29]: 0.93
SMILES: O=[N+]([O-])c1nccn1CC(O)CN1CCCCC1 (configuration not stated)

More lines, now with the values behind:

SMILES: N[C@@H]1C[C@@H]2C[C@H]1c1ccc(C(F)(F)F)cc12
logD [4]: 3.21

SMILES: Clc1cc2c(oc3c(Cl)cc(Cl)c(Cl)c32)c(Cl)c1Cl
logP [7]: 7.51

SMILES: OCCCCCCCc1ccccc1
logP [9]: 3.59

SMILES: Cc1cc(Cl)ccc1OC(C)C(=O)O (configuration not stated)
logP [10]: 2.95

SMILES: O=C(NCc1ccc(O)cc1)c1ccccc1
logD [12]: 1.87

SMILES: NS(=O)(=O)c1ncncc1-c1ccccc1
logD [13]: 0.5

SMILES: CCOP(=S)(OCC)Oc1ccc(Cl)cc1Cl
logP [16]: 5.14

SMILES: c1ccc2c(c1)Nc1ccccc1S2
logD [17]: 3.97

SMILES: Brc1cccc(-c2cc(Br)ccc2Br)c1
logP [18]: 6.2

SMILES: C#CC(C)(C)NC(=O)c1cc(Cl)cc(Cl)c1
logP [21]: 3.43

SMILES: OCCCCc1ccccc1
logP [9]: 2.33

SMILES: CN(C)c1nc(=O)n(C2CCCCC2)c(=O)n1C
logP: 1.85

SMILES: CCCCCCNC(=O)n1cc(F)c(=O)[nH]c1=O
logD [23]: 2.63

SMILES: CCCCC(=O)CC(=O)CCCC
logP [25]: 3.56

SMILES: CC(=O)N(C)c1ccc(S(=O)(=O)N(C)C)cc1
logP [28]: 0.23

SMILES: CC(C)N(C(=O)SC/C(Cl)=C/Cl)C(C)C
logP [21]: 4.49

SMILES: CN1C[C@@H](N)C[C@@H]2c3cccc4[nH]cc(c34)C[C@H]21
logP [2]: 0.4

SMILES: FC(F)(c1ccccc1)C(F)(F)c1ccccc1
logD [27]: 5
